Assay results: ChEMBL document CHEMBL1142509, “Building skeletally diverse architectures on the Indoline Scaffold: the discovery of a chemical probe of focal adhesion kinase signaling networks” (Bioorg Med Chem, 2008)
Active and inactive are the calls of the source. No cut-off for these calls is given here.

Experiments:
MDA-MB-231 = test: Antiinvasive activity against human MDA-MB-231 cells at 25 uM; format: functional, cell-based
[1] = target: Focal adhesion kinase 1 (Homo sapiens) (UniProt Q05397); test: Inhibition of FAK in human MDA-MB-231M cells assessed as phosphorylated tyrosine 397 levels at 25 uM after 1 hr by Western blot; format: cell-based
[2] = Antiproliferative activity against human MDA-MB-231M cells after 96 hrs by MTT assay; format: functional, cell-based
Homo sapiens = organism: Homo sapiens; test: Inhibition of human MDA-MB-231M cell motility assessed as remaining wound area at 25 uM after 24 hrs by wound healing assay; format: functional
[3] = target: Focal adhesion kinase 1 (Homo sapiens) (UniProt Q05397); test: Inhibition of human FAK at 30 uM

Focal adhesion kinase 1 (Homo sapiens), sequence (Q05397 2-1052 limits assumed): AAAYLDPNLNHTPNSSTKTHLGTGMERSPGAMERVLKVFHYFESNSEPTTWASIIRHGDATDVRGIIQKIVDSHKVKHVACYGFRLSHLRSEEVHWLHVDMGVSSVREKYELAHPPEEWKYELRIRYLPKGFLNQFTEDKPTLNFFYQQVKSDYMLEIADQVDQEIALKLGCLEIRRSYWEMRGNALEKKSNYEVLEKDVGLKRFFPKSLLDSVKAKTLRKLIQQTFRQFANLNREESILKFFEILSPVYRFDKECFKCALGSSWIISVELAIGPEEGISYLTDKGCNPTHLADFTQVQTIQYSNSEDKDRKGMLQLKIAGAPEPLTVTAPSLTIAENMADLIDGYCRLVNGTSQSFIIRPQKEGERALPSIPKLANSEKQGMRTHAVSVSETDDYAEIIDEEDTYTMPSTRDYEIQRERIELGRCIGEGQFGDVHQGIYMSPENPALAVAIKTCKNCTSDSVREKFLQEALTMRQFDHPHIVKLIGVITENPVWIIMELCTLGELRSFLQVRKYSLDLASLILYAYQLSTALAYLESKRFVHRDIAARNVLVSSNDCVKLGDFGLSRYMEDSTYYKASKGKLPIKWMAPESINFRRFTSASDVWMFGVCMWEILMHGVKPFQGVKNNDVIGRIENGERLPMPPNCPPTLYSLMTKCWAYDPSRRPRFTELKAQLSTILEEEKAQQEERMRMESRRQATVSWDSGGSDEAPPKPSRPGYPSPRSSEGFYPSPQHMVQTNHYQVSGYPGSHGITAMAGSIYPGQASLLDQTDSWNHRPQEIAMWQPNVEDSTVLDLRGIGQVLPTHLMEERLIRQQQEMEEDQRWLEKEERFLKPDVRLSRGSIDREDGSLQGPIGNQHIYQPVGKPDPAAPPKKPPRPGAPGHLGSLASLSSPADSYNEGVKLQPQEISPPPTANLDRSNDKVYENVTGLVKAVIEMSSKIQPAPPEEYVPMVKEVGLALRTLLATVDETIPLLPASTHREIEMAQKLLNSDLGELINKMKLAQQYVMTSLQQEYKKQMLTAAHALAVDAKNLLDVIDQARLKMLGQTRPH

Activity [1]: Active
inhibition [3]: 30%
SMILES: C=CCOC(=O)N1c2ccc(OCCCOC3CCCCO3)cc2C[C@H]1[C@@H](CC=C)OC(C)=O (mixture of isomers)
Activity (MDA-MB-231): Active
IC50 [2]: 38.7 µM
Activity (Homo sapiens): Active
